Measurements from patent US6613718B2, “Aryl ether derivatives and processes for their preparation and herbicidal and desiccant compositions containing them” (Ishihara Sangyo Kaisha, Ltd., priority 2001, dated 2003).

Key:
Type in all cases: in vivo
[1] = test system: barnyardgrass (Echinochloa crus-galli, ECHCG); assay: Pre-emerge greenhouse herbicide activity screening, phytotoxicity rating; details: 14 days after application
In short: (§1)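 Pre-emerge: seeds sown 1 day before spray; acetone solutions, 15–1000 g ai/ha, track sprayer; soil watered after application, then bottom-watered. Post-emerge: plants at 2-3 leaf stage (sown 8-21 days prior), 0.25% v/v non-ionic surfactant added, bottom-watered only. Rated 0-100 at 14 DAA.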

[2] = test system: common ragweed (Ambrosia artemisiifolia L., AMBEL); assay: as above; details: 14 days after application
In short: as §1

[3] = test system: green foxtail (Setaria viridis, SETVI); assay: as above; details: 14 days after application
In short: as §1

[4] = test system: ivyleaf morningglory (Ipomoea hederacea, IPOHE); assay: as above; details: 14 days after application
In short: as §1

[5] = test system: johnsongrass (Sorghum halepense, SORHA); assay: as above; details: 14 days after application
In short: as §1

[6] = test system: lambsquarters (Chenopodium album, CHEAL); assay: as above; details: 14 days after application
In short: as §1

[7] = test system: large crabgrass (Digitaria sanguinalis, DIGSA); assay: as above; details: 14 days after application
In short: as §1

[8] = test system: redroot pigweed (Amaranthus retroflexus, AMARE); assay: as above; details: 14 days after application
In short: as §1

[9] = test system: sicklepod (Cassia obtusifolia, CASOB); assay: as above; details: 14 days after application
In short: as §1

[10] = test system: velvetleaf (Abutilon theophrasti, ABUTH); assay: as above; details: 14 days after application
In short: as §1

[11] = test system: field corn (Zea mays L., var. Dekalb 535, CORN); assay: Pre-emerge greenhouse screening, crop safety (phytotoxicity rating); details: 14 days after application
In short: as §1

[12] = test system: soybean (Glycine max L., var. Pella 86, SOY); assay: as above; details: 14 days after application
In short: as §1

[13] = test system: upland rice (Oryza sp., var.Tebonnet, RICE); assay: as above; details: 14 days after application
In short: as §1

[14] = test system: barnyardgrass (Echinochloa crus-galli, ECHCG); assay: Post-emerge greenhouse herbicide activity screening, phytotoxicity rating; details: 14 days after application
In short: as §1

[15] = test system: common ragweed (Ambrosia artemisiifolia L., AMBEL); assay: as above
In short: as §1

[16] = test system: green foxtail (Setaria viridis, SETVI); assay: as above
In short: as §1

[17] = test system: ivyleaf morningglory (Ipomoea hederacea, IPOHE); assay: as above; details: 14 days after application
In short: as §1

[18] = test system: johnsongrass (Sorghum halepense, SORHA); assay: as above; details: 14 days after application
In short: as §1

[19] = test system: lambsquarters (Chenopodium album, CHEAL); assay: as above
In short: as §1

[20] = test system: large crabgrass (Digitaria sanguinalis, DIGSA); assay: as above; details: 14 days after application
In short: as §1

[21] = test system: redroot pigweed (Amaranthus retroflexus, AMARE); assay: as above
In short: as §1

[22] = test system: sicklepod (Cassia obtusifolia, CASOB); assay: as above
In short: as §1

[23] = test system: velvetleaf (Abutilon theophrasti, ABUTH); assay: as above; details: 14 days after application
In short: as §1

[24] = test system: field corn (Zea mays L., var. Dekalb 535, CORN); assay: Post-emerge greenhouse screening, crop safety / corn selectivity (phytotoxicity rating); details: 14 days after application
In short: as §1

[25] = test system: soybean (Glycine max L., var. Pella 86, SOY); assay: Post-emerge greenhouse screening, crop safety (phytotoxicity rating); details: 14 days after application
In short: as §1

[26] = test system: upland rice (Oryza sp., var.Tebonnet, RICE); assay: as above; details: 14 days after application
In short: as §1

[27] = 125 g ai/ha, 14 days after application
[28] = 250 g ai/ha, 14 days after application

Cn1c(C(F)(F)F)cc(=O)n(-c2cc(Oc3ccccc3N)c(Cl)cc2F)c1=S [Compound 1-48]
85: ECHCG phytotoxicity rating (0-100 scale) ([1]; 250 g ai/ha) | SORHA phytotoxicity rating (0-100 scale) ([5]; 250 g ai/ha) | ABUTH phytotoxicity rating (0-100 scale) ([23]; 125 g ai/ha)
50: AMBEL phytotoxicity rating (0-100 scale) ([15]; 62.5 g ai/ha) | SETVI phytotoxicity rating (0-100 scale) [16, 27] | DIGSA phytotoxicity rating (0-100 scale) ([20]; 250 g ai/ha) | CASOB phytotoxicity rating (0-100 scale) ([22]; 31.3 g ai/ha)
55: SORHA phytotoxicity rating (0-100 scale) ([5]; 125 g ai/ha) | DIGSA phytotoxicity rating (0-100 scale) ([7]; 125 g ai/ha)
5: CORN crop damage, phytotoxicity rating (0-100 scale) ([11]; 250 g ai/ha)
95: ABUTH phytotoxicity rating (0-100 scale) ([23]; 250 g ai/ha)
100: IPOHE phytotoxicity rating (0-100 scale) ([4]; 250 g ai/ha) | CHEAL phytotoxicity rating (0-100 scale) ([6]; 125 g ai/ha) | CHEAL phytotoxicity rating (0-100 scale) ([6]; 250 g ai/ha) | AMARE phytotoxicity rating (0-100 scale) ([8]; 125 g ai/ha) | AMARE phytotoxicity rating (0-100 scale) ([8]; 250 g ai/ha) | ABUTH phytotoxicity rating (0-100 scale) ([10]; 250 g ai/ha) | CHEAL phytotoxicity rating (0-100 scale) [19, 27] | CHEAL phytotoxicity rating (0-100 scale) [19, 28] | AMARE phytotoxicity rating (0-100 scale) ([21]; 31.3 g ai/ha) | AMARE phytotoxicity rating (0-100 scale) ([21]; 62.5 g ai/ha) | AMARE phytotoxicity rating (0-100 scale) [21, 27] | AMARE phytotoxicity rating (0-100 scale) [21, 28]
70: AMBEL phytotoxicity rating (0-100 scale) ([2]; 125 g ai/ha) | AMBEL phytotoxicity rating (0-100 scale) ([2]; 250 g ai/ha)
80: ECHCG phytotoxicity rating (0-100 scale) ([1]; 125 g ai/ha) | IPOHE phytotoxicity rating (0-100 scale) ([4]; 125 g ai/ha) | IPOHE phytotoxicity rating (0-100 scale) ([17]; 125 g ai/ha) | CHEAL phytotoxicity rating (0-100 scale) ([19]; 31.3 g ai/ha)
35: RICE crop damage, phytotoxicity rating (0-100 scale) ([26]; 250 g ai/ha)
30: SETVI phytotoxicity rating (0-100 scale) ([16]; 62.5 g ai/ha)
75: DIGSA phytotoxicity rating (0-100 scale) ([7]; 250 g ai/ha) | AMBEL phytotoxicity rating (0-100 scale) [15, 28] | IPOHE phytotoxicity rating (0-100 scale) ([17]; 250 g ai/ha) | CASOB phytotoxicity rating (0-100 scale) ([22]; 62.5 g ai/ha) | CASOB phytotoxicity rating (0-100 scale) [22, 27] | CASOB phytotoxicity rating (0-100 scale) [22, 28]
60: AMBEL phytotoxicity rating (0-100 scale) ([15]; 31.3 g ai/ha) | AMBEL phytotoxicity rating (0-100 scale) [15, 27] | SETVI phytotoxicity rating (0-100 scale) [16, 28]
90: SETVI phytotoxicity rating (0-100 scale) ([3]; 125 g ai/ha) | ABUTH phytotoxicity rating (0-100 scale) ([10]; 125 g ai/ha)
25: DIGSA phytotoxicity rating (0-100 scale) ([20]; 125 g ai/ha)
10: CORN crop damage, phytotoxicity rating (0-100 scale) ([24]; 250 g ai/ha)
0: CASOB phytotoxicity rating (0-100 scale) ([9]; 125 g ai/ha) | CASOB phytotoxicity rating (0-100 scale) ([9]; 250 g ai/ha) | CORN crop damage, phytotoxicity rating (0-100 scale) ([11]; 125 g ai/ha) | SOY crop damage, phytotoxicity rating (0-100 scale) ([12]; 125 g ai/ha) | SOY crop damage, phytotoxicity rating (0-100 scale) ([12]; 250 g ai/ha) | RICE crop damage, phytotoxicity rating (0-100 scale) ([13]; 125 g ai/ha) | ECHCG phytotoxicity rating (0-100 scale) ([14]; 125 g ai/ha) | ECHCG phytotoxicity rating (0-100 scale) ([14]; 250 g ai/ha) | SETVI phytotoxicity rating (0-100 scale) ([16]; 31.3 g ai/ha) | SORHA phytotoxicity rating (0-100 scale) ([18]; 125 g ai/ha) | SORHA phytotoxicity rating (0-100 scale) ([18]; 250 g ai/ha) | CORN crop damage, phytotoxicity rating (0-100 scale) ([24]; 125 g ai/ha) | SOY crop damage, phytotoxicity rating (0-100 scale) ([25]; 125 g ai/ha) | SOY crop damage, phytotoxicity rating (0-100 scale) ([25]; 250 g ai/ha) | RICE crop damage, phytotoxicity rating (0-100 scale) ([26]; 125 g ai/ha)
8: RICE crop damage, phytotoxicity rating (0-100 scale) ([13]; 250 g ai/ha)
99: SETVI phytotoxicity rating (0-100 scale) ([3]; 250 g ai/ha) | CHEAL phytotoxicity rating (0-100 scale) ([19]; 62.5 g ai/ha)
